“And” between values parts separate entries of the source, which are not always exact repeats. Equal values may be shown once. HELM strings list units from the 5' end as sugar, base in round brackets, then linkage (d deoxyribose, r ribose, m 2'-O-methyl, p phosphodiester). Methylation of C is not given here. [moe] = 2'-O-(2-methoxyethyl) (MOE); [cEt] = constrained ethyl (cEt); [sp] = phosphorothioate linkage
Biological target: HBV
Conditions: ASO

Substance	target mRNA inhibition (HepG2, 0.07 µM)	other results
RNA1{[moe](T)[sp].[moe](A)[sp].[moe](T)[sp].d(G)[sp].d(C)[sp].d(C)[sp].d(T)[sp].d(A)[sp].d(C)[sp].d(A)[sp].d(G)[sp].d(C)[sp].[moe](C)[sp].[moe](T)[sp].[moe](C)[sp].[moe](C)}$$$$V2.0	49% and 46%	
RNA1{[moe](T)[sp].[moe](C)[sp].[moe](C)[sp].[moe](G)[sp].[moe](C)[sp].d(A)[sp].d(G)[sp].d(T)[sp].d(A)[sp].d(T)[sp].d(G)[sp].d(G)[sp].d(A)[sp].d(T)[sp].[moe](C)[sp].[moe](G)}$$$$V2.0	75% and 59%	
RNA1{[moe](T)[sp].[moe](C)[sp].[moe](C)[sp].[moe](G)[sp].d(C)[sp].d(A)[sp].d(G)[sp].d(T)[sp].d(A)[sp].d(T)[sp].d(G)[sp].d(G)[sp].d(A)[sp].[moe](T)[sp].[moe](C)[sp].[moe](G)[sp].[moe](G)}$$$$V2.0	72% and 65%	
RNA1{[moe](T)[sp].[moe](C)[sp].d(C)[sp].d(G)[sp].d(C)[sp].d(A)[sp].d(G)[sp].d(T)[sp].d(A)[sp].d(T)[sp].d(G)[sp].[moe](G)[sp].[moe](A)[sp].[moe](T)[sp].[moe](C)[sp].[moe](G)[sp].[moe](G)}$$$$V2.0	74% and 70%	
RNA1{[moe](T)[sp].[moe](C)[sp].d(C)[sp].d(G)[sp].d(C)[sp].d(A)[sp].d(G)[sp].d(T)[sp].d(A)[sp].d(T)[sp].d(G)[sp].[moe](G)[sp].[moe](A)[sp].[moe](T)[sp].[moe](C)[sp].[moe](G)}$$$$V2.0	70% and 62%	
RNA1{[moe](T)[sp].[moe](G)[sp].[moe](A)[sp].[moe](A)[sp].[moe](G)[sp].d(C)[sp].d(G)[sp].d(A)[sp].d(A)[sp].d(G)[sp].d(T)[sp].d(G)[sp].d(C)[sp].d(A)[sp].[moe](C)[sp].[moe](A)}$$$$V2.0	59% and 47%	
RNA1{[moe](T)[sp].[moe](G)[sp].[moe](A)[sp].[moe](G)[sp].[moe](G)[sp].[moe](C)[sp].d(A)[sp].d(T)[sp].d(A)[sp].d(G)[sp].d(C)[sp].d(A)[sp].d(G)[sp].d(C)[sp].d(A)[sp].[moe](G)[sp].[moe](G)}$$$$V2.0	58% and 44%	
RNA1{[moe](T)[sp].[moe](G)[sp].[moe](A)[sp].d(A)[sp].d(G)[sp].d(C)[sp].d(G)[sp].d(A)[sp].d(A)[sp].d(G)[sp].d(T)[sp].d(G)[sp].[moe](C)[sp].[moe](A)[sp].[moe](C)[sp].[moe](A)}$$$$V2.0	76% and 66%	target mRNA inhibition (HepG2, 0.0092593 µM): 11%; target mRNA inhibition (HepG2, 0.0277778 µM): 22%; target mRNA inhibition (HepG2, 0.0833333 µM): 44%; target mRNA inhibition (HepG2, 0.25 µM): 64%
RNA1{[moe](T)[sp].[moe](G)[sp].[moe](A)[sp].d(G)[sp].d(A)[sp].d(G)[sp].d(A)[sp].d(A)[sp].d(G)[sp].d(T)[sp].d(C)[sp].d(C)[sp].d(A)[sp].[cEt](C)[sp].[cEt](C)[sp].[cEt](A)}$$$$V2.0	35% and 41%	
RNA1{[moe](T)[sp].[moe](G)[sp].[moe](C)[sp].d(A)[sp].d(G)[sp].d(A)[sp].d(G)[sp].d(G)[sp].d(T)[sp].d(G)[sp].d(A)[sp].d(A)[sp].[moe](G)[sp].[moe](C)[sp].[moe](G)[sp].[moe](A)[sp].[moe](A)}$$$$V2.0	75% and 63%	
RNA1{[moe](T)[sp].[moe](G)[sp].[moe](C)[sp].d(A)[sp].d(G)[sp].d(A)[sp].d(G)[sp].d(G)[sp].d(T)[sp].d(G)[sp].d(A)[sp].d(A)[sp].d(G)[sp].[cEt](C)[sp].[cEt](G)[sp].[cEt](A)}$$$$V2.0	78% and 79%	
RNA1{[moe](T)[sp].[moe](G)[sp].[moe](G)[sp].[moe](A)[sp].d(G)[sp].d(C)[sp].d(C)[sp].d(A)[sp].d(C)[sp].d(C)[sp].d(A)[sp].d(G)[sp].d(C)[sp].[moe](A)[sp].[moe](G)[sp].[moe](G)}$$$$V2.0	47% and 35%	

— the OligoGym collection
